Source: patent US20010005714A1, “AMPHIPATHIC MOLECULES AS CHOLESTEROL AND OTHER LIPID UPTAKE INHIBITORS” (priority 1996, published 2001)

Assays:
[1] = system: rabbit BBMVs; assay: Sterol uptake inhibition using mixed bile salt micelles as donors; type: biochemical; conditions: 1.56 μM human apo A-1 or 1.98 μM fr.28-PBE94; 5 mM taurocholate, 0.6 mM oleic acid, 2 μM cholesterol; 10 min at 25° C.
Description: Since bile salt micelles are the most important lipid carriers in the small intestine, it is relevant to measure sterol uptake inhibition using mixed bile salt micelles as the donor. Donor micelles made of 50 mM taurocholate, 6 mM oleic acid and 20 μM radiolabelled cholesterol were prepared as follows: the lipids were mixed at these concentrations in 2:1 chloroform:methanol and the organic solvent was removed by rotary evaporation. The resulting lipid film was dried under high vacuum for at least 1 hour. The dried film was dispersed in the appropriate amount of Tris/NaCl to yield the desired micellar concentration. Acceptor rabbit BBMVs, prepared as described in Example 2, were mixed with either 1.56 μM human apo A-1 or 1.98 μM fr.28-PBE94. Donor mixed micelles were added to the acceptor/inhibitor dispersion to a final concentration of 5 mM taurocholate, 0.6 mM oleic acid and 2 μM radiolabelled cholesterol and the mixture incubated for 10 min at 25° C. […] Radioactivities in both pellet and supernatant were measured and results evaluated as described in Example 2; incubation with apo A-1 yielded 12% of the inhibitory activity measured at the same inhibitor concentration using SUVs as donor, and incubation with fr.28-PBE94 yielded 23% of the inhibitory activity measured at the same inhibitor concentration using SUVs as donor.

[2] = taken from Chapman (1986), for comparison; cited from earlier work
[3] = system: brush border membrane vesicles (BBMV); assay: IC50 of cholesteryl oleate uptake at the brush border membrane (Example 6); type: biochemical, rabbit; conditions: donor 0.1 mg total lipid/ml, acceptor 2 mg protein/ml; 20 min at 25° C.
Description: An appropriate amount of inhibitor dissolved in 84.5 μl buffer (0.05 M Tris pH 7.4, 0.15 M NaCl) is mixed in an Eppendorf tube at time zero with 5 μl of a dispersion of donor and 10.5 μl of a dispersion of acceptor (i.e. brush border membrane vesicles (BBMV)) in the same buffer. The final concentration of the donor vesicles was 0.1 mg total lipid/ml, that of the acceptor was 2 mg protein/ml. The resulting mixture was incubated for 20 min at 25° C., and the reaction was stopped by adding 60 μl of the incubation medium to 120 μl ice-cold bufferin an airfuge tube. The diluted dispersion was immediately centrifuiaed in the airfuge at […] for 2 min. at 4° C. to separate donor vesicles from BBMV. Two 60 μl aliquots of the donor (=supernatant) were counted in a Beckman LS-7500 liquid scintillating counter to determine the radioactivity remaining in tbe donor.
Small unilamellar egg phosphatidycholine (PC) vesicles containing 1 mol % of cholesterol oleate and a trace amount of ^3H-cholesterol oleyl ether were made by dissolving the appropriate amounts of the lipids in CHCl3/CH3OH, (2:1, by vol.), taking the solution to dryness on a rotary evaporator and drying the residue in vacuo. The dried lipid film was dispersed in the appropriate volume of buffer by hand-shaking. The lipid dispersion was subjected to tip sonication as described in Brunner et al, J. Biol. Chem. 253 7538-7546 (1978). The resulting donor dispersion in buffer was centrifuged in the airfuge at 100000 g for 2 min at […]. Only the top 80% of the donor dispersion after centrifugation was used in the lipid uptake experiment.
BBMV were prepared from frozen rabbit small intestine according to Hauser et al (Biochim. Biophys. Acta 602 567-577 (1980)). Prior to use in the uptake experiment determining IC50 values the BBMV were washed to remove any free protein liberated from the BBM. To this end the BBMV dispersion was diluted with buffer 1:1 in an airfuge tube, and the diluted dispersion was centrifuged in the airfuga at 100000 g for 2 min at […]. The supernatant was is carefully decanted, the pellet was resuspended in buffer to the original volume of the BBMV dispersion, and the dispersion was homogenized. […]

[4] = Denaturation by 10% TCA or boiling/chilling: protein remaining in supernatant; type: physicochemical
Excerpt: Since the characterisation of sheep apo A-1 has not been reported yet, the physical characteristics of human and rabbit apo A-1 are reported for comparison (Chapman, Academic Press, Inc. San Diego, New York, Boston, London, Sydney, Tokyo. Toronto 70-143 1986)). Fr.28-PBE94 was subjected to N-terminal amino acid analysis. The first 29 amino acids of fr.28-PBE94 were 79.3% identical with rat apo A-1, 69.0% with rabbit apo A-1, 86.2% with bovine apo A-1 and 65.0% with human apo A-1. Fr.28-PBE94 cross-reacted with mouse monoclonal anti-human apo A-1 antibodies in Western blotting experiments. […] This is the floating density of high-density lipoproteins. After subjecting fr.28-PBE94 to the guanidine HCl treatment according to Nichols et al. (Nichols et al., Biochimica et Biophysica Acta 446 226-239 (1976)), fr.28-PBE94 was delipidated, showing the same behaviour as human apo A-1. […] Denatured proteins were removed by centrifugation, and protein and inhibitory activity remaining in the supernatant were determined (Table 4).

[5] = system: small intestine of Sprague-Dawly rats; assay: In vivo cholesterol absorption in the small intestine of rats; conditions: ApoA-1 added to the diet
Excerpt: The biological relevance of the inhibitory effect observed in vitro is confirmed by an in vivo experiment showing that cholesterol absorption in the small intestine of Sprague-Dawly rats can be inhibited by the amphipathic principle by more than 80%. ApoA-1 added to the diet was used as the inhibitor, because this protein could be purified from human serum in sufficient quantity. Bases or the experimental evidence presented we ppropose that the inhibitory effect on cholesterol uptake is not restricted to particular amphipathic molecules. It is likely that the chemical nature of the amphipathic compound is of secondary importance and that the geometry and the polarity of the compound are the decisive determinants. The results presented here have important implications since amphipathic molecules belonging to any class of biological compounds such as lipids, proteins or carbohydrates might inhibit cholesterol uptake by the brush border membrane.

[6] = system: rabbit BBMV; assay: Dose response of cholesteryl oleate uptake from egg PC SUVs by rabbit BBMV (FIG. 4B); type: biochemical; conditions: donor 0.05 mg/ml total lipid, acceptor 1.7 mg protein/ml, 20 min at 25° C., curve fits of FIG. 4B
Description: Small unilamellar vesicles of egg phosphatidylcholine containing 1 mol % cholesteryl oleate and a trace amount of (1,2-^3H2 (N)]-cholesteryl oleyl ether (37 Ci/mmol, from Amersham, UK) as the donor were made as described in Example 1 and BBMVs as the acceptor were prepared from rabbit small intestine (see Example 1). Donor and acceptor both dispersed in Tris/NaCl buffer (0.05 M Tris HCl pH 7.4, 0.15 M NaCl, 0.02% NaN3) and a solution of human apo A-1 or sheep HDL in the same buffer were mixed at time zero (total volume: 0.1 ml) so that the final concentrations of donor and acceptor were 0.05 mg/ml total lipid and 1.7 mg protein/ml, respectively. After incubation of the suspension of donor and acceptor in the presence of inhibitor for 20 min. at 25° C., the reaction was stopped by dilution with 2 vol. of Tris/NaCl buffer. Donor and acceptor were separated by centrifugation in the airfuge at 115,000 g for 2 min. at […]., and the radioactivities in the supernatant containing donor vesicles and in the pellet containing BBMVs were determined in a BECKMAN™ LS 7500 scintillation counter. […]
Experimental conditions were as described for FIG. 4A. The cholesterol absorption activity of BBMVs measured in the absence of inhibition was taken as 100% and the loss in activity observed in the presence of inhibitor is expressed as %. […]

human apo A-1: human apolipoprotein A-1, prepared from human HDL by delipidation and ion exchange chromatography
inhibitory activity with mixed bile salt micelles as donor, as % of that measured at the same inhibitor concentration using SUVs as donor [1]: 12% | isoelectric point [2]: 5.52 | IC50 [3]: 0.5 ± 0.1 µM | IC50 (μg/mL) of cholesteryl oleate uptake at the brush border membrane [3]: 14 ± 3 µg/mL | protein (%) remaining in the supernatant ([4]; after TCA precipitation (10% TCA)): 0% | protein (%) remaining in the supernatant ([4]; after boiling/chilling (4 cycles, 5 min each)): 27% | inhibition of cholesterol absorption in the small intestine [5]: more than 80% | IC-50 [6]: 25 µg/mL
